Reference: ChEMBL document CHEMBL1131216, “Anhydrolide macrolides. 2. Synthesis and antibacterial activity of 2,3-anhydro-6-O-methyl 11,12-carbazate erythromycin A analogues” (1998)
Values after ≈ are worked out from the molar mass of the structure shown.

What was measured:
Format in all cases: functional
[1] = tested on: Staphylococcus aureus; assay: In vitro antibacterial activity of A5177 strain of Gram positive bacteria Staphylococcus aureus
[2] = tested on: Haemophilus influenzae; assay: In vitro antibacterial activity of DILL strain of Gram negative bacteria Haemophilus influenzae
[3] = tested on: Streptococcus pyogenes; assay: In vitro antibacterial activity of PIU2584 strain of Gram positive bacteria Streptococcus pyogenes
[4] = tested on: Streptococcus pneumoniae; assay: In vitro antibacterial activity of 5649 strain of Gram positive bacteria Streptococcus pneumoniae
[5] = tested on: Streptococcus pneumoniae; assay: In vitro antibacterial activity of 5979 strain of Gram positive bacteria Streptococcus pneumoniae
[6] = tested on: Streptococcus pyogenes; assay: In vitro antibacterial activity of 930 strain of Gram positive bacteria Streptococcus pyogenes
[7] = tested on: Streptococcus pneumoniae; assay: In vitro antibacterial activity of ATCC 6303 strain of Gram positive bacteria Streptococcus pneumoniae
[8] = tested on: Staphylococcus aureus; assay: In vitro antibacterial activity of A-5278 strain of Gram positive bacteria Staphylococcus aureus
[9] = tested on: Staphylococcus aureus; assay: In vitro antibacterial activity of 6538P strain of Gram positive bacteria Staphylococcus aureus
[10] = tested on: Streptococcus pyogenes; assay: In vitro antibacterial activity of EES61 strain of Gram positive bacteria Streptococcus pyogenes

SMILES	MIC [1]	MIC [2]	MIC [3]	MIC [4]	MIC [5]	MIC [6]	MIC [7]	MIC [8]	MIC [9]	MIC [10]
CC[C@H]1OC(=O)/C(C)=C/[C@H](C)[C@@H](O[C@@H]2O[C@H](C)C[C@H](N(C)C)[C@H]2O)[C@@](C)(OC)C[C@@H](C)C(=O)[C@H](C)[C@H]2N(NCCCc3ccc(F)cc3)C(=O)O[C@]12C	0.2 µg/mL (≈ 0.267 µM)	16 µg/mL (≈ 21.4 µM)	1 µg/mL (≈ 1.34 µM)	1 µg/mL (≈ 1.34 µM)	64 µg/mL (≈ 85.6 µM)	64 µg/mL (≈ 85.6 µM)	0.06 µg/mL (≈ 0.0802 µM)	50 µg/mL (≈ 66.8 µM)	0.39 µg/mL (≈ 0.521 µM)	0.03 µg/mL (≈ 0.0401 µM)
CC[C@H]1OC(=O)/C(C)=C/[C@H](C)[C@@H](O[C@@H]2O[C@H](C)C[C@H](N(C)C)[C@H]2O)[C@@](C)(OC)C[C@@H](C)C(=O)[C@H](C)[C@H]2N(NCCCc3ccc(N)cc3)C(=O)O[C@]12C		4 µg/mL (≈ 5.37 µM)	1 µg/mL (≈ 1.34 µM)	1 µg/mL (≈ 1.34 µM)	> 128 µg/mL	> 128 µg/mL	0.03 µg/mL (≈ 0.0403 µM)	> 100 µg/mL	0.39 µg/mL (≈ 0.524 µM)	0.03 µg/mL (≈ 0.0403 µM)
CC[C@H]1OC(=O)/C(C)=C/[C@H](C)[C@@H](O[C@@H]2O[C@H](C)C[C@H](N(C)C)[C@H]2O)[C@@](C)(OC)C[C@@H](C)C(=O)[C@H](C)[C@H]2N(NCCCc3cccc(N)c3)C(=O)O[C@]12C	0.2 µg/mL (≈ 0.268 µM)	4 µg/mL (≈ 5.37 µM)	1 µg/mL (≈ 1.34 µM)		> 128 µg/mL	> 128 µg/mL	0.03 µg/mL (≈ 0.0403 µM)	> 100 µg/mL	0.2 µg/mL (≈ 0.268 µM)	0.03 µg/mL (≈ 0.0403 µM)
CC[C@H]1OC(=O)/C(C)=C/[C@H](C)[C@@H](O[C@@H]2O[C@H](C)C[C@H](N(C)C)[C@H]2O)[C@@](C)(OC)C[C@@H](C)[C@H]2[C@H](C)[C@H]3N(C(=O)O[C@]13C)N2CCCc1ccccc1	50 µg/mL (≈ 70 µM)	> 64 µg/mL	64 µg/mL (≈ 89.6 µM)	64 µg/mL (≈ 89.6 µM)	64 µg/mL (≈ 89.6 µM)	64 µg/mL (≈ 89.6 µM)	16 µg/mL (≈ 22.4 µM)	100 µg/mL (≈ 140 µM)	100 µg/mL (≈ 140 µM)	16 µg/mL (≈ 22.4 µM)
CC[C@H]1OC(=O)/C(C)=C/[C@H](C)[C@@H](O[C@@H]2O[C@H](C)C[C@H](N(C)C)[C@H]2O)[C@@](C)(OC)C[C@@H](C)C(=O)[C@H](C)[C@H]2N(NCCCc3ccc(O)cc3)C(=O)O[C@]12C	0.1 µg/mL (≈ 0.134 µM)	4 µg/mL (≈ 5.36 µM)	0.25 µg/mL (≈ 0.335 µM)	1 µg/mL (≈ 1.34 µM)	> 64 µg/mL	> 64 µg/mL	0.004 µg/mL (≈ 0.00536 µM)	> 100 µg/mL	0.2 µg/mL (≈ 0.268 µM)	0.004 µg/mL (≈ 0.00536 µM)

Next, values leading:

MIC [1]	MIC [2]	MIC [3]	MIC [4]	MIC [5]	MIC [6]	MIC [7]	MIC [8]	MIC [9]	MIC [10]	SMILES
0.1 µg/mL (≈ 0.139 µM)	4 µg/mL (≈ 5.57 µM)	0.5 µg/mL (≈ 0.696 µM)	1 µg/mL (≈ 1.39 µM)	> 128 µg/mL	> 128 µg/mL	0.03 µg/mL (≈ 0.0418 µM)	> 100 µg/mL	0.2 µg/mL (≈ 0.279 µM)	0.03 µg/mL (≈ 0.0418 µM)	CC[C@H]1OC(=O)/C(C)=C/[C@H](C)[C@@H](O[C@@H]2O[C@H](C)C[C@H](N(C)C)[C@H]2O)[C@@](C)(OC)C[C@@H](C)C(=O)[C@H](C)[C@H]2N(NCc3cccc(O)c3)C(=O)O[C@]12C
0.01 µg/mL (≈ 0.0129 µM)	8 µg/mL (≈ 10.3 µM)	0.5 µg/mL (≈ 0.645 µM)	1 µg/mL (≈ 1.29 µM)	128 µg/mL (≈ 165 µM)	64 µg/mL (≈ 82.6 µM)	0.03 µg/mL (≈ 0.0387 µM)	> 100 µg/mL	0.1 µg/mL (≈ 0.129 µM)	0.03 µg/mL (≈ 0.0387 µM)	CC[C@H]1OC(=O)/C(C)=C/[C@H](C)[C@@H](O[C@@H]2O[C@H](C)C[C@H](N(C)C)[C@H]2O)[C@@](C)(OC)C[C@@H](C)C(=O)[C@H](C)[C@H]2N(NCCCc3ccccc3[N+](=O)[O-])C(=O)O[C@]12C
	8 µg/mL (≈ 10.1 µM)	1 µg/mL (≈ 1.26 µM)	0.5 µg/mL (≈ 0.628 µM)	> 128 µg/mL	128 µg/mL (≈ 161 µM)	0.03 µg/mL (≈ 0.0377 µM)	> 100 µg/mL	0.2 µg/mL (≈ 0.251 µM)	0.03 µg/mL (≈ 0.0377 µM)	CC[C@H]1OC(=O)/C(C)=C/[C@H](C)[C@@H](O[C@@H]2O[C@H](C)C[C@H](N(C)C)[C@H]2O)[C@@](C)(OC)C[C@@H](C)C(=O)[C@H](C)[C@H]2N(NCCCn3cnc(-c4ccccc4)c3)C(=O)O[C@]12C
	8 µg/mL (≈ 10.4 µM)	0.5 µg/mL (≈ 0.651 µM)	0.25 µg/mL (≈ 0.326 µM)	32 µg/mL (≈ 41.7 µM)	32 µg/mL (≈ 41.7 µM)	0.03 µg/mL (≈ 0.0391 µM)	100 µg/mL (≈ 130 µM)	0.2 µg/mL (≈ 0.26 µM)	0.06 µg/mL (≈ 0.0781 µM)	CC[C@H]1OC(=O)/C(C)=C/[C@H](C)[C@@H](O[C@@H]2O[C@H](C)C[C@H](N(C)C)[C@H]2O)[C@@](C)(OC)C[C@@H](C)C(=O)[C@H](C)[C@H]2N(NCc3c(O)ccc4ccccc34)C(=O)O[C@]12C
6.2 µg/mL (≈ 8.52 µM)	> 64 µg/mL	8 µg/mL (≈ 11 µM)	4 µg/mL (≈ 5.49 µM)	16 µg/mL (≈ 22 µM)	16 µg/mL (≈ 22 µM)	1 µg/mL (≈ 1.37 µM)	50 µg/mL (≈ 68.7 µM)	12.5 µg/mL (≈ 17.2 µM)	4 µg/mL (≈ 5.49 µM)	CC[C@H]1OC(=O)/C(C)=C/[C@H](C)[C@@H](O[C@@H]2O[C@H](C)C[C@H](N(C)C)[C@H]2O)[C@@](C)(OC)C[C@@H](C)C(=O)[C@@H](C)[C@H]2N(NC/C=C/c3ccccc3)C(=O)O[C@]12C
0.2 µg/mL (≈ 0.272 µM)	16 µg/mL (≈ 21.7 µM)	1 µg/mL (≈ 1.36 µM)	1 µg/mL (≈ 1.36 µM)	32 µg/mL (≈ 43.5 µM)	32 µg/mL (≈ 43.5 µM)	0.06 µg/mL (≈ 0.0815 µM)	100 µg/mL (≈ 136 µM)	0.2 µg/mL (≈ 0.272 µM)	0.03 µg/mL (≈ 0.0407 µM)	CC[C@H]1OC(=O)/C(C)=C/[C@H](C)[C@@H](O[C@@H]2O[C@H](C)C[C@H](N(C)C)[C@H]2O)[C@@](C)(OC)C[C@@H](C)C(=O)[C@H](C)[C@H]2N(NCc3ccc(Cl)cc3)C(=O)O[C@]12C
